Assay results: paper PMC7592376, “Design and synthesis of multi-target directed 1,2,3-triazole-dimethylaminoacryloyl-chromenone derivatives with potential use in Alzheimer's disease” (BMC Chemistry, 2020)
Several values for one entry are separate records, joined by “and”; a condition that tells them apart may be missing. Equal values may be shown once. Read-outs that look alike come from different tables or passages of the source.

Key:
AChE [1] = target: T1, AChE (Electrophorus electricus, UniProt O42275); test: biochemical; conditions: mean ± SD, three independent experiments; read-out: AChEI IC50
T1 construct: purchased Aldrich
T1 sequence (O42275 24-633): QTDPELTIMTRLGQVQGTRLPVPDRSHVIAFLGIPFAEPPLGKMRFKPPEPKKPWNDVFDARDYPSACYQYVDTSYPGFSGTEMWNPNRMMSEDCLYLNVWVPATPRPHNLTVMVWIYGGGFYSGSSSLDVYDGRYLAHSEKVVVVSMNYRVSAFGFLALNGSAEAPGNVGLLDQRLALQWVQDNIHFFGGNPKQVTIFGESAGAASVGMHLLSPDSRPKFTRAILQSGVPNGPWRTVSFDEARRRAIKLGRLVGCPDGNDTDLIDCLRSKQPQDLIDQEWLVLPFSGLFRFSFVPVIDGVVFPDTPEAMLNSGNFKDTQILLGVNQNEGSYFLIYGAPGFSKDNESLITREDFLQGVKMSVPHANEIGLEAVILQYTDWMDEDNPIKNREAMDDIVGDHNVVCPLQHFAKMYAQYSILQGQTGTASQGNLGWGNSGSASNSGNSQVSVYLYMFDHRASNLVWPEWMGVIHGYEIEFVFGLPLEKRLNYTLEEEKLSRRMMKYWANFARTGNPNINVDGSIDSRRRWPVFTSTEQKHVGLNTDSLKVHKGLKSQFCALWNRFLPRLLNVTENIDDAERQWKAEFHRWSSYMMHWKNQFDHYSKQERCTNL
Description: (§1) All enzymes and reagents required for the assay were obtained from Aldrich. […] Each well contained 50 µL potassium phosphate buffer (KH2PO4/ K2HPO4, 0.1 M, pH 8), 25 µL sample solution, and 25 µL enzyme (final concentration 0.22 U/mL in buffer). Control experiments were also performed under the same conditions without enzyme. After incubation at room temperature for 15 min, 125 µL DTNB (3 mM in buffer) was added and the characterization of enzymatic reaction was spectrometrically performed at 405 nm followed by the addition of substrate (ATCI 3 mM in water) after 5–10 min. The IC50 values were determined graphically from inhibition curves (log inhibitor concentration vs. percent of inhibition). Also, the same method was used for the BuChE inhibition assay.

BuChE [2] = target: T2, BuChE (Homo sapiens, UniProt P06276); test: biochemical; conditions: mean ± SD, three independent experiments; read-out: BuChEI IC50
T2 construct: purchased Aldrich
T2 sequence (P06276 29-602): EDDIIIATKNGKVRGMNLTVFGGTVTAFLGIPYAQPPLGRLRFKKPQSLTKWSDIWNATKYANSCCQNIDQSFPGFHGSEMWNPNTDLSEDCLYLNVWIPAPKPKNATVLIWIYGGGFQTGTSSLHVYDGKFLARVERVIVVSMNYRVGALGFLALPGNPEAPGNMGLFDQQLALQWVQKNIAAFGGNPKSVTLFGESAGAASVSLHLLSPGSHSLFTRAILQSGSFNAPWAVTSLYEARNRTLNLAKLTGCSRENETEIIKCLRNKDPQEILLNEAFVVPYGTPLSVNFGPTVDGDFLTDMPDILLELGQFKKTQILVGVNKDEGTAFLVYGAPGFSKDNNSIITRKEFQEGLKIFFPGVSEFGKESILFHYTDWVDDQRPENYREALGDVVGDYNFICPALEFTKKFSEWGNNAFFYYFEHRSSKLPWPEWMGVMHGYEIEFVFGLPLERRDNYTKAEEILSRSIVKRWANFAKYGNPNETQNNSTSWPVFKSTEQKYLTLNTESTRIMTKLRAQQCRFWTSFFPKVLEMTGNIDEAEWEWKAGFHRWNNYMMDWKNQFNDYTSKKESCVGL
Description: as §1

BuChE [3] = target: T2, BuChE; test: Kinetic study of BuChE inhibition (Lineweaver-Burk and secondary plot); format: biochemical
Description: The kinetic study was performed to investigate the mechanism of inhibition by compound 10h against BuChE.
The Lineweaver–Burk reciprocal plot was provided by plotting 1/V against 1/[S] at variable concentrations of butyrylthiocholine as the substrate (187.5, 750, 1500, 3000 µM).

[4] = target: AChE-induced Aβ1-40 peptide aggregation (Homo sapiens, UniProt P05067); test: biochemical; conditions: read-out: % Inhibition AChE-induced Aβ aggregation
AChE-induced Aβ1-40 peptide aggregation, sequence (P05067 672-711): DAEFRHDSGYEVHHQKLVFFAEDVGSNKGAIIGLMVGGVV
Description: (§2) Inhibition of Aβ1-42 self-aggregation was measured by ThT fluorescence assay. The details of the method were reported in our previous study. To study Aβ42 aggregation inhibition, a reported method, based on the fluorescence emission of ThT was followed. Briefly, the mixtures of Aβ1-40 peptide (Bachem company, Switzerland) and AChE (Sigma, Electrophorus electricus), in the presence or absence of the test inhibitor were incubated for 24 h at room temperature.

Aβ1-42 = Aβ1-42 (Homo sapiens, UniProt P05067); test: biochemical; conditions: read-out: % Inhibition self-induced Aβ1–42 aggregation
Aβ1-42, sequence (P05067 672-713 limits assumed): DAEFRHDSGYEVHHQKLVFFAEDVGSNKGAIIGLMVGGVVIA
Description: as §2

PC12 cells = test: Neuroprotection against Aβ25-35-induced damage, MTT assay; format: cell-based; conditions: up to 50 μM, Aβ25-35 5 μM
Description: Compound 10h was selected to study the neuroprotective ability using PC12 cell injury induced by Aβ25–35 by MTT assay.
MTT reduction assay was used to evaluate the neuroprotective effect of compound 10h on neuronal PC12 cell damage induced by Aβ25-35. The cells were grown in monolayer culture on collagen-coated plates at 37 °C in a humidified atmosphere of 5% CO2. Neuronal PC12 cells were plated at a density of 5 × 10^5 cells/well on 96-well plates. The cells were pre-incubated with compound 10h for 3 h before human Aβ 25–35 (final concentration of 5 μM) was added. After 24 h, 90 μL the medium was taken out and 20 μL of MTT (0.5 mg/ml dissolved in RPMI containing phenol red) was added and incubated for an additional 2 h at 37 °C. The absorbance (A570 nm) was measured using a Bio-Rad microplate reader (Model 680, Bio-Rad). The details were reported in our previous work.

[5] = Metal chelation studies by UV spectra and molar ratio method; format: physicochemical
Description: The stoichiometry of complex 10h-Cu^2+ was also studied (Fig. 4) due to important role of copper ions in AD [38]. The concentration of the test compound 10h was 20 μM and the final concentration of Cu^2+ ranged from 0–44 μM with 4 μM intervals at 303.5 nm.
The plot was obtained by the corresponding absorption against the mole fraction of Cu^2+ to ligand 10h. According to the plot, the ratio 1:1 complexation ration of 10h-Cu^2+ can be seen at the fracture point of the plot with the mole fraction of […].
To study the metal chelating ability, the solutions of compound 10h and Fe^2+, Cu^2+, and Zn^2+ ions (from FeSO4, CuCl2.2H2O, and ZnCl2) were prepared in methanol. The mixture of compound 10h (1 mL) and the test ion solutions (1 mL) with the same final concentration of 20 µM in a 1 cm quartz cuvette was incubated at room temperature for 30 min. Then, the absorption spectra were recorded in the range of 200–600 nm.
The stoichiometry of complex 10h-Cu^2+ was also studied using the molar ratio method. The concentration of compound 10h was 20 μM and the final concentration of Cu^2+ ranged from 0–44 μM with 4 μM intervals at 303.5 nm. The plot was obtained by the corresponding absorption versus mole fraction of Cu^2+ to ligand 10h. All experiments were performed in triplicate.

BuChE [6] = target: T2, BuChE; design: method as in PMID 29421707, PMID 27914694, PMID 31327094, doi:10.1007/s00044-018-2187-8, PMID 25531792; conditions: literature compounds of Fig. 1; read-out: BuChEI, IC50; cited from earlier work
AChE [7] = target: T1, AChE; design: method as in PMID 29421707, PMID 27914694, PMID 25531792; conditions: literature compounds of Fig. 1; read-out: AChEI, IC50; cited from earlier work
Aβ [8] = tested on: Aβ; design: method as in PMID 29407958, PMID 29763808, PMID 32131034; conditions: at 25 μM; cited from earlier work
Aβ [9] = tested on: Aβ; design: method as in PMID 29407958, PMID 29763808, PMID 32131034; conditions: at 100 μM; cited from earlier work
neuronal cell line = tested on: neuronal cell line; design: method as in PMID 29107423; conditions: cited from earlier work

Row | SMILES | IC50 (AChE [1]) [µM] | IC50 (BuChE [2]) [µM] | also measured
1 | CN(C)/C=C/C(=O)c1cc2ccc(OCc3cn(Cc4ccccc4)nn3)cc2oc1=O [Compound 10a, (E)-7-((1-Benzyl-1H-1,2,3-triazol-4-yl)methoxy)-3-(3-(dimethylamino)acryloyl)-2H-chromen-2-one] | > 100 | 34.41 ± 0.23 | 
2 | Cc1ccccc1Cn1cc(COc2ccc3cc(C(=O)/C=C/N(C)C)c(=O)oc3c2)nn1 [Compound 10b, (E)-3-(3-(Dimethylamino)acryloyl)-7-((1-(2-methylbenzyl)-1H-1,2,3-triazol-4-yl)methoxy)-2H-chromen-2-one] | > 100 | 35.73 ± 0.21 | 
3 | Cc1ccc(Cn2cc(COc3ccc4cc(C(=O)/C=C/N(C)C)c(=O)oc4c3)nn2)cc1 [Compound 10c, (E)-3-(3-(Dimethylamino)acryloyl)-7-((1-(4-methylbenzyl)-1H-1,2,3-triazol-4-yl)methoxy)-2H-chromen-2-one] | > 100 | > 100 | 
4 | COc1cccc(Cn2cc(COc3ccc4cc(C(=O)/C=C/N(C)C)c(=O)oc4c3)nn2)c1 [Compound 10d, (E)-3-(3-(Dimethylamino)acryloyl)-7-((1-(3-methoxybenzyl)-1H-1,2,3-triazol-4-yl)methoxy)-2H-chromen-2-one] | > 100 | 23.44 ± 0.07 | 
5 | CN(C)/C=C/C(=O)c1cc2ccc(OCc3cn(Cc4ccccc4F)nn3)cc2oc1=O [Compound 10e, (E)-3-(3-(Dimethylamino)acryloyl)-7-((1-(2-fluorobenzyl)-1H-1,2,3-triazol-4-yl)methoxy)-2H-chromen-2-one] | > 100 | > 100 | 
6 | CN(C)/C=C/C(=O)c1cc2ccc(OCc3cn(Cc4cccc(F)c4)nn3)cc2oc1=O [Compound 10f, (E)-3-(3-(Dimethylamino)acryloyl)-7-((1-(3-fluorobenzyl)-1H-1,2,3-triazol-4-yl)methoxy)-2H-chromen-2-one] | > 100 | 59.58 ± 0.05 | 
7 | CN(C)/C=C/C(=O)c1cc2ccc(OCc3cn(Cc4ccc(F)cc4)nn3)cc2oc1=O [Compound 10g, (E)-3-(3-(Dimethylamino)acryloyl)-7-((1-(4-fluorobenzyl)-1H-1,2,3-triazol-4-yl)methoxy)-2H-chromen-2-one] | > 100 | > 100 | 
8 | CN(C)/C=C/C(=O)c1cc2ccc(OCc3cn(Cc4ccc(F)c(F)c4)nn3)cc2oc1=O [Compound 10h, (E)-7-((1-(3,4-Difluorobenzyl)-1H-1,2,3-triazol-4-yl)methoxy)-3-(3-(dimethylamino)acryloyl)-2H-chromen-2-one] | > 100 | 21.7 ± 0.57 | inhibition pattern (Lineweaver-Burk plot) (BuChE [3]; BuChE, inhibitor 0, 10.7, 42.9, 85.8 µM): mixed-type inhibition; Ki (BuChE [3]; from secondary plot of slopes vs inhibitor concentration, substrate butyrylthiocholine): 38.3 µM; inhibition at 100 µM [4]: 29.4 ± 1.5%; inhibition at 10 µM (Aβ1-42): 32.6 ± 2%; neuroprotective effect on Aβ-induced PC12 cell injury (PC12 cells): no neuroprotective effect; metal chelating ability (in words) ([5]; Fe2+, Cu2+, Zn2+): able to chelate biometals; UV absorption peaks after interaction with Cu2+ ([5]; methanol, 20 µM each, 30 min): 303.5 nm and 382.4 nm; UV absorption peaks after interaction with Fe2+ ([5]; methanol, 20 µM each, 30 min): 303.5 nm and 390.9 nm; UV absorption peaks after interaction with Zn2+ ([5]; methanol, 20 µM each, 30 min): 299.2 nm and 388.7 nm; UV absorption peaks of compound alone ([5]; methanolic solution 20 µM): 309.9 nm and 386.7 nm
9 | CN(C)/C=C/C(=O)c1cc2ccc(OCc3cn(Cc4ccccc4Cl)nn3)cc2oc1=O [Compound 10i, (E)-7-((1-(2-Chlorobenzyl)-1H-1,2,3-triazol-4-yl)methoxy)-3-(3-(dimethylamino)acryloyl)-2H-chromen-2-one] | > 100 | > 100 | 
10 | CN(C)/C=C/C(=O)c1cc2ccc(OCc3cn(Cc4ccc(Cl)cc4)nn3)cc2oc1=O [Compound 10j, (E)-7-((1-(4-Chlorobenzyl)-1H-1,2,3-triazol-4-yl)methoxy)-3-(3-(dimethylamino)acryloyl)-2H-chromen-2-one] | > 100 | > 100 | 
11 | CN(C)/C=C/C(=O)c1cc2ccc(OCc3cn(Cc4ccccc4Br)nn3)cc2oc1=O [Compound 10k, (E)-7-((1-(2-Bromobenzyl)-1H-1,2,3-triazol-4-yl)methoxy)-3-(3-(dimethylamino)acryloyl)-2H-chromen-2-one] | > 100 | > 100 | 
12 | CN(C)/C=C/C(=O)c1cc2ccc(OCc3cn(Cc4cccc(Br)c4)nn3)cc2oc1=O [Compound 10l, (E)-7-((1-(3-Bromobenzyl)-1H-1,2,3-triazol-4-yl)methoxy)-3-(3-(dimethylamino)acryloyl)-2H-chromen-2-one] | > 100 | 65.96 ± 0.004 | 
13 | CN(C)/C=C/C(=O)c1cc2ccc(OCc3cn(Cc4ccc(Br)cc4)nn3)cc2oc1=O [Compound 10m, (E)-7-((1-(4-Bromobenzyl)-1H-1,2,3-triazol-4-yl)methoxy)-3-(3-(dimethylamino)acryloyl)-2H-chromen-2-one] | > 100 | > 100 | 
14 | Nc1c2c(nc3ccccc13)CCCC2 [Tacrine, reference compound] |  |  | inhibition at 100 µM [4]: 6.7 ± 0.9%; inhibition at 10 µM (Aβ1-42): 7.6 ± 1.4%
15 | O=C(NCc1cc[n+](Cc2cccc(F)c2)cc1)c1cc2ccccc2oc1=O [compound A] |  |  | IC50 (BuChE [6]): 12.2 µM
16 | COc1ccc(Cn2cc(COc3ccc4ccc(=O)oc4c3)nn2)cc1 [compound B] |  |  | IC50 (AChE [7]): 3.4 µM; IC50 (BuChE [6]): 1.1 µM
17 | Clc1ccc(Cn2cc(CSc3nnc(-c4ccccc4)c(-c4ccccc4)n3)nn2)cc1 [compound C] |  |  | IC50 (BuChE [6]): 6.41 µM
18 | CN(C)CCC(=O)c1ccc(-c2ccc(C(=O)CCN(C)C)cc2)cc1 [compound D] |  |  | IC50 (AChE [7]): 19.9 µM; IC50 (BuChE [6]): 0.32 µM
19 | Cc1cc(=O)oc2cc(OCCCCSC(=S)N3CCCCC3)ccc12 [compound E] |  |  | Aß aggregation inhibition (Aβ [8]): 40.19%
20 | COc1ccc(-c2cc3ccc(OCCCn4cc(CNC(=O)CCCCC5CCSS5)nn4)cc3oc2=O)cc1OC (centres unmarked) [compound F] |  |  | Aß self aggregation inhibition (Aβ [9]): 51.2%
21 | N=c1oc2ccccc2cc1C(=O)Nc1cc(Br)ccc1NCc1cn(CCC2C(=O)c3ccccc3C2=O)nn1 [compound G] |  |  | IC50 (neuronal cell line): 7.9 µM
